From patent US20240261292A1, “COMBINATION THERAPIES” (Janssen Pharmaceutica NV, priority 2021, published 2024)
Counter-ions that a name gives are not always drawn.

Assays:
KO-52 cells = assay: Proliferation assay (spheroid), KO-52 control cell line; assay type: cell-based; settings: Homo sapiens, 8 days, read-out: spheroid assay_OneTime KO-52 IC50
Experimental: (§1) The anti-proliferative effect of menin/MLL protein/protein interaction inhibitor test compounds was assessed inhuman leukemia cell lines. The cell line MOLM-14 harbors a MLL translocation and expresses the MLL fusion protein MLL-AF9, respectively, as well as the wildtype protein from the second allele. OCI-AML3 cells that carry the NPM1c gene mutation were also tested. […] KO-52 was used as a control cell line containing two MLL (KMT2A) wildtype alleles in order to exclude compounds that display general cytotoxic effects.
(§2) KO-52 and OCI-AML3 cell lines were propagated in alpha-MEM (Sigma Aldrich) supplemented with 20% heat-inactivated fetal bovine serum (HyClone), 2 mM L-glutamine (Sigma Aldrich) and 50 μg/ml gentamycin (Gibco).
In order to assess the anti-proliferative effects, 200 MOLM-14 cells, 200 OCI-AML3 cells or 300 KO-52 cells were seeded in 200 μl media per well in 96-well round bottom, ultra-low attachment plates (Costar, catalogue number 7007). […] Spheroid like growth was measured in real-time by live-cell imaging (IncuCyteZOOM, Essenbio, 4× objective) acquiring images at day 8. Confluence (%) as a measure of spheroid size was determined using an integrated analysis tool.
In order to determine the effect of the test compounds over time, the confluence in each well as a measure of spheroid size, was calculated. […]

OCI-AML3 cells = assay: Proliferation assay (spheroid), OCI-AML3; assay type: cell-based, human; settings: Homo sapiens, OCI-AML-3, […], 8 days
Experimental: as §1, §2
In order to assess the anti-proliferative effects, 200 MOLM-14 cells, 200 OCI-AML3 cells or 300 KO-52 cells were seeded in 200 μl media per well in 96-well round bottom, ultra-low attachment plates (Costar, catalogue number 7007). Cell seeding numbers were chosen based on growth curves to ensure linear growth throughout the experiment. Test compounds were added at different concentrations and the DMSO content was normalized to 0.3%. Cells were incubated for 8 days at 37° C. and 5% CO2. Spheroid like growth was measured in real-time by live-cell imaging (IncuCyteZOOM, Essenbio, 4× objective) acquiring images at day 8. Confluence (%) as a measure of spheroid size was determined using an integrated analysis tool.
In order to determine the effect of the test compounds over time, the confluence in each well as a measure of spheroid size, was calculated. Confluence of the highest dose of a reference compound was used as baseline for the LC (Low control) and the confluence of DMSO treated cells was used as 0% cytotoxicity (High Control, HC).
HC=High Control: Mean confluence (%) (DMSO treated cells);
Dose-response equation was used for the plot of % Effect vs Log10 compound concentration with a variable slope and fixing the maximum to 100% and the minimum to 0%. 2b) MEIS1 mRNA Expression Assay

[1] = test system: iCell Cardiomyocytes2 (hSC-CMs); assay: Ca2+-fluorescence assay in human pluripotent stem cell-derived cardiomyocytes (CTCM human); assay type: cell-based; set-up: key to Hazard Scoring Color @ 0.1 μM / Hazard Scoring Color @ 0.2 μM / Hazard Scoring Color @ 0.5 μM / Hazard Scoring Color @ 1 μM / Hazard Scoring Color @ 2.5 μM / Hazard Scoring Color @ 5 μM / Hazard Scoring Color @ 0.3 μM / Hazard Scoring Color @ 3 μM / Hazard Scoring Color @ 10 μM / Hazard Scoring Color @ 30 μM: Green: No concern; Yellow: Low concern; Red: High concern; Black: Very high concern due to arrhythmic events; settings: 30 min
Experimental: 7) Cardio-Electrophysiological Effects of the Testing Compounds in Synchronously Beating Human Pluripotent Stem Cell-Derived Cardiomyocytes (hSC-CMs) Using a Ca^2+-Fluorescence Assay (CTCM Human)
Compounds were tested in the 96-well plates.
Compounds were tested at 0.1 μM, 0.2 μM, 0.5 μM, 1 μM, 2.5 μM and 5 μM (n=4 per dose) on Cor.4U®-Cardiomyocytes or on iCell® Cardionyocytes2.
Alternatively, compounds were tested at 0.1 μM, 0.3 μM; 1 μM, 3 μM, 10 μM and 30 μM (n=4 per dose) mostly on iCell® Cardiomyocytes2.
Vehicle control: Dimethylsulfoxide (DMSO). The solutions of the compound in DMSO or its solvent (final concentration of 0.1% DMSO; n=8).
Tested compounds were dissolved in DMSO at 1000-fold the intended concentrations. A compound “mother-plate” was made, containing the test compounds and positive and negative controls at 1000-fold the final concentrations. At the experiment day, these stock solutions were diluted with Tyrode (Sigma), supplemented with 10 mM HEPES (Gibco), to 2-fold the intended concentration (in round bottom compound plates). Final DMSO concentration in test solutions and vehicle control was 0.1%.
hSC-CMs (Cor.4U® Cardiomyocytes) were obtained from CDI (Ncardia, Germany). Cells are pre-plated and seeded in fibronectin-coated 96-well plates at a density suited to form a monolayer and maintained in culture in a stage incubator (37° C., 5% CO2), according to the instructions of the cell provider.
Second line hSC derived cardiomyocyte called iCell® Cardiomyocytes2 were purchased from FUJIFILM Cellular Dynamics (USA). The experiments with test drugs are carried out 5 to 7 days after plating the cells onto the plate to have a living, beating monolayer of hiPSC-derived cardiomyocytes. The beating monolayer in 96-well-plates are normally taken from 2 Vials of frozen iCell® Cardiomyocytes2 (≈5 million cells/vial), which will be plated onto three 96-well plates (≈50K/well).
At least one hour before the start of the experiments the normal cell medium was replaced with Tyrode solution with Calcium dye (see below).
Cal 520 dye (AAT Bioquest) was dissolved in 11 ml of Tyrode supplemented with 10 mM HEPES and warmed up to 37 C before adding to the cells.
35 μl cell culture medium was removed from each well and replaced with 35 μl of pre-warmed Cal 520 dye solution and cell plate was incubated for 45 min at 37° C./5% CO2. Cells were incubated for 5 min at 37° C.
Spontaneous electrical activity is recorded, using Cal520™ (AAT Bioquest) calcium fluorescence-dye signalling. This dye integrates the total intracellular calcium activity over the whole well. A bottle of Ca1520 dye (50 μg, MW: 1103/mol) is dissolved with 50 μl DMSO as a stock solution of 0.9 mM. 50 μL of the stock solution of the dye was added to 10 ml Tryodes solution to have dye concentration of 4.5 μM. Subsequently, 35 μl of this dye solution was added into each well, to have a final dye concentration of 1.58 μM. The current dye protocol on this CTCM human assay was established recently (Ivan Kopljar et al, Journal of Pharmacological and toxicological methods 2018. 91: 80-86; Lu et al., Tox Sci 2019. 170 (2): 345-356).
Fluorescent signals (Ca^2+ transient morphology) were measured using the Functional Drug Screen System (FDSS/μCell; Hamamatsu, Japan) and the recordings were subsequently analyzed off-line, using appropriate software e.g., Notocord.
The cell plate was loaded into the FDSS/μCell for a test run: Ca^2+ transients were measured for 4 minutes to check for synchronous beating of the cardiomyocytes in each well. All 96 wells were measured simultaneously (sampling interval: 0.06 s, short exposure time: 10 ms; excitation wavelength 480 nm; emission wavelength 540 nm; FDSS/μCell warmed to 37° C.).
During the compound addition step, 100 μl of the respective double-concentrated test solutions was pipetted into each well simultaneously.
Data were analyzed off-line using appropriate software e.g., Notocord-Hem (version 4.3). […]

[2] = iCell Cardiomyocytes2 (Table 12)
[3] = iCell Cardiomyocytes2 (Table 11)

SMILES	IC50 (KO-52 cells)	IC50 (OCI-AML3 cells)	Hazard Scoring Color @ 0.1 μM [1, 2]	Hazard Scoring Color @ 0.3 μM ([1]; 0.3 μM, iCell Cardiomyocytes2 (Table 12))	Hazard Scoring Color @ 1 μM [1, 2]	Hazard Scoring Color @ 3 μM ([1]; 3 μM, iCell Cardiomyocytes2 (Table 12))	Hazard Scoring Color @ 10 μM ([1]; 10 μM, iCell Cardiomyocytes2 (Table 12))	Hazard Scoring Color @ 30 μM ([1]; 30 μM, iCell Cardiomyocytes2 (Table 12))	Hazard Scoring Color @ 0.1 μM [1, 3]	Hazard Scoring Color @ 0.2 μM ([1]; 0.2 μM, iCell Cardiomyocytes2 (Table 11))	Hazard Scoring Color @ 0.5 μM ([1]; 0.5 μM, iCell Cardiomyocytes2 (Table 11))	Hazard Scoring Color @ 1 μM [1, 3]	Hazard Scoring Color @ 2.5 μM ([1]; 2.5 μM, iCell Cardiomyocytes2 (Table 11))	Hazard Scoring Color @ 5 μM ([1]; 5 μM, iCell Cardiomyocytes2 (Table 11))
CCN(C(=O)c1cc(F)ccc1Oc1nncnc1N1CCC2(C1)CN([C@H](CCCNCCOC)C(C)C)C2)C(C)C [Compound 11, (R)-N-ethyl-5-fluoro-N-isopropyl-2-((5-(2-(6-((2-methoxyethyl)amino)-2-methylhexan-3-yl)-2,6-diazaspiro[3.4]octan-6-yl)-1,2,4-triazin-6-yl)oxy)benzamide]	8.38 µM	0.21 µM	Green	Green	Green	Green	Green	Green						
CCN(C(=O)c1cc(F)ccc1Oc1nncnc1N1CCC2(C1)CN([C@H](CCCN(C)CCOC)C(C)C)C2)C(C)C [Compound A3, (R)-N-ethyl-5-fluoro-N-isopropyl-2-((5-(2-(6-((2-methoxyethyl) (methyl)amino)-2-methylhexan-3-yl)-2,6-diazaspiro[3.4]octan-6-yl)-1,2,4-triazin-6-yl)oxy) benzamide oxalate]	7.75 µM	0.12 µM							Green	Green	Green	Green	Green	Green
